Reference: US20100172848A1, “SKIN AND SURFACE DISINFECTANT COMPOSITIONS CONTAINING BOTANICALS” (The Trustees Of Columbia University In the City of New York, priority 2008, published 2010)

Legend:
S. aureus [1] = assay: Five-minute kill test of solutions in 10% SDA40-B alcohol and water, colony counts on TSA; assay type: cell-based; settings: 5 minutes contact
Procedure: Various concentrations of basil oil and acetic, lactic, and citric acids, separately and in combination, were prepared in 10 percent SDA40-B alcohol and water, and adjusted to 100 percent. Except for citric acid, which was added by weight, all other ingredients were measured by volume. 0.9 ml of each solution were dispensed in sterile culture tubes, in triplicate, and 0.1 ml of a 10^7 cfu/ml S. aureus culture was added to the tubes, vortexed, and then, five minutes later, 9.0 ml of drug inactivating medium was added to each tube. Serial dilutions were made with the drug inactivating medium. 0.5 ml of the dilutions were plated on trypticase soy agar (“TSA”) plates. As a control, water containing 10 percent SDA40-B alcohol was processed in parallel. The plates were incubated at 37° C. for 24-48 hours and then the colony counts were determined.
The same methodology was used to test the antimicrobial activity of combinations of citric acid with other essential oils.
Next, the same general protocol was used to test the efficacy of basil, cinammon and citronella oils against a variety of organisms, namely E. coli, P. aeruginosa, MRSA, C. albicans, and S. aureus.
Various concentrations of cinnamon leaf oil and citric acid were dissolved in SDA 40-B alcohol (10%) and water, and adjusted to 100 percent. Except for citric acid, which was added by weight, all other ingredients were measured by volume. 0.9 ml of each solution were dispensed in sterile culture tubes, in triplicate, and 0.1 ml of 10^7 cfu/ml of S. aureus culture was added to the tubes, vortexed, and then, five minutes later, 9.0 ml of drug inactivating medium was added to each tube. Serial dilutions were made with the drug inactivating medium. 0.5 ml of the dilutions were plated on trypticase soy agar (“TSA”) plates. As a control, water containing 10% percent SDA40-B alcohol was processed in parallel. The plates were incubated at 37° C. for 24-48 hours and then the colony counts were determined.
The following experiments were performed to evaluate the antibacterial activity of LG and Citric acid dissolved in alcohol, where the test organism used was S. aureus. Various amounts of LG oil and Citric acid were dissolved in SDA40-B alcohol, and then water was added to result in the EO concentration shown and an alcohol concentration of 10 percent. 0.9 ml of each solution were dispensed in sterile culture tubes, in triplicate, and 0.1 ml of a 10^7 cfulml S. aureus culture was added to the tubes, vortexed, and then, five minutes later, 9.0 ml of drug inactivating medium was added to each tube. Serial dilutions were made with drug inactivating medium. 0.5 ml of the dilutions were plated on trypticase soy agar (“TSA”) plates. As a control, water containing 10 percent SDA40-B alcohol was processed in parallel. The plates were incubated at 37° C. for 24-48 hours and then the colony counts were determined.

S. aureus [2] = assay: Soap rapid antimicrobial activity (30 second kill) with bovine serum; assay type: cell-based
Procedure: The antimicrobial activity of the above soap was tested in parallel with commercial Softsoap® containing triclosan (Softsoap Antibacterial; Colgate-Palmolive). 0.1 ml of a 10^8 cfu/ml culture of each microbe tested was mixed with 0.1 ml of bovine serum and placed in a sterile culture tube. 0.8 ml of the test soap formulation was added to the tube and vortexed for 30 seconds. Then 9.0 ml DNB was added to neutralize the activity of the soap. The tube was then vortexed and serially diluted with DNB. 0.5 ml of the diluted solution was plated on TSA plates. The same soap base lacking cinnamon oil, citric acid, and orange oil, with phosphate buffered saline mixed with the culture, were used as the controls.
The antimicrobial activity of the above soap was tested in parallel with commercial Dial® Antibacterial Hand Soap) containing triclosan. 0.1 ml of a 10^8 cfu/ml culture of each microbe tested was mixed with 0.1 ml of bovine serum and placed in a sterile culture tube. 0.8 ml of the test soap formulation was added to the tube and vortexed for 30 seconds. Then 9.0 ml DNB was added to neutralize the activity of the soap. The tube was then vortexed and serially diluted with DNB. 0.5 ml of the diluted solution was plated on TSA plates. […]
(§1) A mixture of 0.1 ml of 10^7 cfu/ml of S. aureus culture and 0.1 ml of bovine serum were placed in a sterile culture tube. […] 0.5 ml of the diluted solution was plated on trypticase soy agar plates, incubated at 37° C. for 24-48 hrs and the colony counts were determined. […]
as §1
A mixture of 0.1 ml of 10^8 cfu/ml of S. aureus culture and 0.1 ml of bovine serum were placed in a sterile culture tube. […] 0.5 ml of the diluted solution was plated on trypticase soy agar plates, incubated at 37° C. for 24-48 hrs and the colony counts were determined.

[3] = SDA 40-B alcohol (10%) and water (Table 71)
[4] = 10 percent SDA40-B alcohol, control counts 1 × 10^6 to 5 × 10^6 (Table 67)
[5] = 10 percent SDA40-B alcohol, control counts 1 × 10^6 to 5 × 10^6 (Table 66)

O=C(O)CC(O)(CC(=O)O)C(=O)O [Citric Acid 0.25%, Citric Acid]
Log 10 reduction (S. aureus [1]; [3]): 0.08 log10

CC(C)=CCCC(C)=CCCC(C)=CCO [0.25% Farnesol, Farnesol]
Log 10 reduction (S. aureus [1]; [4]): 0 log10

O=C(O)CC(O)(CC(=O)O)C(=O)O [Citric Acid 0.5%, Citric Acid]
Log 10 reduction (S. aureus [1]; [3]): 0.20 log10

CCCCCCCCC(O)CO (centres unmarked) [1,2 decanediol(0.5%)]
Log10 reduction from control (S. aureus [2]; alkanediol 0.5% w/w where present, soap pH 4.5-4.6, control counts 2 × 10^8-5 × 10^8): 1.4 log10

CCCCCCCCC(O)CO (centres unmarked) [1,2 decanediol (0.3%)]
Log10 reduction from control (S. aureus [2]; alkanediol 0.3% w/w where present, control counts 2 × 10^8-5 × 10^8): 0.6 log10

CC(=O)O [1% Acetic acid (AA), Acetic acid]
Log 10 reduction (S. aureus [1]; [5]): 0.2 log10

O=C(O)CC(O)(CC(=O)O)C(=O)O [1.0 citric acid]
Log10 reduction from control (S. aureus [2]; compounds (% w/w) in soft soap lacking triclosan, PBS control counts 7 × 10^7-1 × 10^8): 1.3 log10

O=C(O)CC(O)(CC(=O)O)C(=O)O [Citric Acid 0.125%, Citric Acid]
Log 10 reduction (S. aureus [1]; [3]): 0.02 log10

O=C(O)CC(O)(CC(=O)O)C(=O)O [1% Citric Acid (CA), Citric Acid]
Log 10 reduction (S. aureus [1]; [5]): 0.1 log10 | Log 10 reduction (S. aureus [1]; [4]): 0.1 log10 | Log10 reduction from control (S. aureus [1]; 10 percent alcohol, control counts 1 × 10^6 to 5 × 10^6 (Table 79)): 0.3 log10 | Log 10 reduction (S. aureus [1]; SDA 40-B alcohol (10%) and water (Table 71), listed as Citric Acid 1.0%): 0.30 log10

CC(O)C(=O)O (centres unmarked) [1% Lactic acid (LA), Lactic acid]
Log 10 reduction (S. aureus [1]; [5]): 2.3 log10

O=C(O)CC(O)(CC(=O)O)C(=O)O [Citric Acid 2%, Citric Acid]
Log 10 reduction (S. aureus [1]; [3]): 0.32 log10
